Reference: patent publication US20120302546A1, “NOVEL SULFAMIDES EXHIBITING NEUROPROTECTIVE ACTION AND METHODS FOR USE THEREOF” (FOX CHASE CHEMICAL DIVERSITY CENTER, INC., priority 2010, published 2012)

Experiments:
Hippocampal Cultures [1] = assay: Neuroprotection from glutamate excitotoxicity, propidium iodide cell death assay; format: cell-based, rat; conditions: Day 15 Hippocampal Cultures, 30 μM glutamate (FIG. 5)
Hippocampal Cultures [2] = assay: Neuroprotection from glutamate excitotoxicity, CFDA neuronal viability assay; format: cell-based, rat; conditions: day 20 hippocampal cultures, 5 min 30 μM glutamate, CFDA assay 24 hours after initiation of treatment (FIG. 1-3)
Experimental: Pharmacology: Hydroxyethyl sulfamides attenuate glutamate-mediated neuronal viability. As an example, compound II, shown above, is shown to attenuate a decrease in carboxyfluorescein diacetate (CFDA) produced by acute treatment with glutamate in FIG. 1. For these studies, day 20 hippocampal cultures derived from E18 rats were treated for 5 min with 30 μM glutamate. Following removal of the glutamate, cultures were treated with various concentrations of compound II and the CFDA neuronal viability assay was conducted 24 hours after the initiation of treatment. The dotted line labeled “control” represents the mean CFDA value for control culture receiving no treatment. The dotted line labeled “carisbamate” represents the mean CFDA value for the reference compound carisbamate, a putative neuroprotective, anticonvulsant. For the CFDA measurements, RFU is the abbreviation for relative fluorescent units. The reference anticonvulsant compound carisbamate was tested at 100 μM, as lower concentrations were ineffective.
Cell cultures: All compounds are screened with dissociated hippocampal cultures derived from embryonic day 18 rats as the primary test system. With this preparation, primary neurons are used to test for toxicity as well as neuroprotection in a highly relevant experimental system to epilepsy. In brief, hippocampal tissue are obtained commercially through Brain Bits (Springfield, Ill.) and cultures prepared as previously described by Brewer (Brewer, G. J. Serum-free B27/neurobasal medium supports differentiated growth of neurons from the striatum, substantia nigra, septum, cerebral cortex, cerebellum and dentate gyms, J. Neurosci. Res. 1995, 42, 674-683.). The hippocampal neurons are platted at low density (10,000 cell/well) in a 96-well format and maintained in serum-free medium consisting of Neurobasal Medium supplemented with B27 and GlutaMAX (Gibco). Pre-coated poly-L-lysine coated plates are used because of the preferential adherence and survival of hippocampal neurons on this matrix support.
Carboxyfluorescein (CFDA) was used a vital stain for all cell toxicity and neuroprotection studies. With the use of the CytoFluor fluorimeter, the CFDA assay was employed to assess the viability of neurons. CFDA is a dye that becomes fluorescent upon cell entry and cleavage by cytosolic esterases (Petroski, R. E.; Geller, H. M Selective labeling of embryonic neurons cultures on astrocyte monolayers with 5(6)-carboxyfluorescein diacetate (CFDA). J. Neurosci. Methods 1994, 52, 23-32.). Neuronal specificity is obtained relative to astrocytes because the cleaved dye is extruded extracellularly by glia with time, while dye in neurons remains intracellular. […] To further assess the culture responses, a propidium iodide method was used as previously described (Sarafian, T. A.; Kouyoumjian, S.; Tashkin, D.; Roth, M. D. Synergistic cytotoxicity of 9-tetrahydrocannabianol and butylated hydroxyanisole, Tox. Letters, 2002. 133, 171-179.) to measure the number of dead cells. Propidium iodide becomes fluorescent when binding to the DNA of dead cells. Cultures were treated on day 2 with the test agent and then the two assays were conducted after a […] test period. For all assays, a 96-well format was used. For the screen, log concentration-effect studies were conducted from 10 nM to 1 mM with 8 replications. The duration of the test period was five days. Cultures were given a complete change of medium prior to the initiation of the treatment period.
Potent neuroprotection is the distinguishing characteristic that separates this program's anticonvulsants from all other commercial drugs for epilepsy. The experimental details and the rationale for the implemented assays are essential in differentiating these compounds from that of others. The central objective of all neuroprotective assays was their relevancy to excitotoxicity and oxidative stress related to epilepsy. […]

[3] = system: MES-induced seizure spread; assay: Maximal Electroshock Seizure (MES) test in mice; format: in vivo; conditions: Mouse MES, intraperitoneal, vehicle methylcellulose
Experimental: (§1) Methods to measure anticonvulsant activity: All tests were conducted by the Anticonvulsant Screening Program (ASP) of the National Institute of Neurological Disease and Stroke at the National Institutes of Health. The Maximal Electroshock Seizure (MES) or Maximal Seizure Pattern Test: The MES is a model for generalized tonic-clonic seizures (Putnam and Merritt, 1937). It is highly reproducible with consistent endpoints. The behavioral and electrographic seizures generated in this model are consistent with the human disorder. This model identifies those compounds which prevent seizure spread. In the MES test, an electrical stimulus of 0.2 s in duration (50 mA in mice and 150 mA in rat at 60 Hz) is delivered via corneal electrodes primed with an electrolyte solution containing an anesthetic agent. Mice are tested at 30 minutes and 4 hours following doses of 30, 100 and 300 mg/kg of test compound. Test compounds are administered intraperitoneally to the mice. Rats are tested at time intervals between 0.25 and 4 hours following a standard oral dose of 30 mg/kg. Abolition of the hindlimb tonic extensor component indicates the test compound's ability to inhibit MES-induced seizure spread.

[4] = system: 6 Hz corneal stimulation evoked seizures; assay: 6 Hz psychomotor seizure test in mice; format: in vivo; conditions: Mouse 6 Hz, 100 mg/kg, intraperitoneal, vehicle methylcellulose
Experimental: Methods to measure anticonvulsant activity: All tests were conducted by the Anticonvulsant Screening Program (ASP) of the National Institute of Neurological Disease and Stroke at the National Institutes of Health. The 6 Hz Seizure Test: Compounds were further tested in the 6-Hz psychomotor seizure model (Barton et al., 2001). This model is used to detect seizures that may be useful for the treatment of therapy-resistant partial seizures. For this test, an alternative electrical stimulation paradigm is used with a low frequency (6 Hz), long duration (3 seconds) corneal stimulation. The seizure evoked by this low frequency stimulation is characterized by immobility, forelimb clonus, Straub tail and facial automatisms (Barton et al., 2001). Mice are tested from 15 min to 4 hours following an intraperitoneal dose of 100 mg/kg. Abolition of the clonic seizures indicates the ability of a compound to prevent partial or psychomotor seizures.

[5] = system: MES-induced seizure spread; assay: Maximal Electroshock Seizure (MES) test in rats; format: in vivo; conditions: Rat MES, 30 mg/kg, oral, vehicle methylcellulose
Experimental: as §1

NS(=O)(=O)NC[C@@H](O)c1ccccc1Cl [compound III]
effect on glutamate-mediated increase in cell death (propidium iodide) (Hippocampal Cultures [1]): efficacious | effect on glutamate-mediated decrease in neuronal viability (CFDA) (Hippocampal Cultures [2]): efficacious

NS(=O)(=O)NC[C@@H](O)c1ccccc1Cl [drawing 54]
# animals active/# animals tested ([3]; 30 mg/kg, 0.5 hr): 0/1 | # animals active/# animals tested ([3]; 100 mg/kg, 0.5 hr): 2/3 | # animals active/# animals tested ([3]; 300 mg/kg, 0.5 hr): 1/1 | # animals active/# animals tested ([4]; 0.25 hr): 0/4 | # animals active/# animals tested ([4]; 0.5 hr): 1/4 | # animals active/# animals tested ([4]; 1.0 hr): 1/4 | # animals active/# animals tested ([4]; 2.0 hr): 0/4 | # animals active/# animals tested ([5]; 0.25 hr): 1/4 | # animals active/# animals tested ([5]; 0.5 hr): 0/4

NS(=O)(=O)NCC(O)c1ccccc1F (stereo not shown) [drawing 55]
# animals active/# animals tested ([3]; 30 mg/kg, 4 hr): 0/1 | # animals active/# animals tested ([3]; 100 mg/kg, 4 hr): 1/3 | # animals active/# animals tested ([3]; 300 mg/kg, 4 hr): 1/1 | # animals active/# animals tested ([4]; 0.25 hr): 0/4 | # animals active/# animals tested ([4]; 0.5 hr): 1/4 | # animals active/# animals tested ([4]; 1.0 hr): 1/4 | # animals active/# animals tested ([4]; 2.0 hr): 1/4 | # animals active/# animals tested ([4]; 4.0 hr): 1/4 | # animals active/# animals tested ([5]; 1 hr): 0/4 | # animals active/# animals tested ([5]; 2 hr): 1/4 | # animals active/# animals tested ([5]; 4 hr): 2/4
